# Results: US20060292243A1, “Arsenic compounds for the treatment of the arsenic-sensitive blast-cell related diseases” (priority 2005, published 2006)
# pIC50: −log10 of the molar value. Read-outs that look alike come from different tables or passages of the source.
# Experiments:
# [1] = test system: white blood cells in BALF; experiment: Differential white blood cell count in BALF, OVA-immunized mice; format: in vivo, BALB/c mice; settings: for Lymphocyte concentration in BALF / Neutrophil concentration in BALF: mean; for Eosinophil concentration in BALF / Macrophage concentration in BALF: mean ± SD
# Method: BALB/c mice (female, 6-8 weeks) were immunized with ovalbumin (OVA) at day 0, 14, 21 and 28. 38 days later, animals were injected with arsenic trioxide (ATO) i.p. for 7 days and antigen challenges with OVA were performed at day 42, 43, 44. At day 45, the airway enhanced pause (PenH) values were measured. 48 hours after the last antigen challenges, the mice were sacrificed, the trachea cannulated, and bronchoalveolar lavage (BAL) was performed by four repeated lavages with balanced salt solution (HBSS) injected into the lungs via the trachea. Total cell counts were performed with a hemocytometer after staining with trypan blue, and then cytospins were prepared, and a differential count of 300 cells per slide was performed. To obtain the absolute number of each leukocyte subtype in the lavage, the percentage of each cell type was multiplied by the total number of cells that were recovered from the bronchoalveolar lavage fluid (BALF). Eotaxin in the BALF was measured via ELISA. Four groups of mice were treated as Table 3.1.
# Group A mice were challenged by PBS only and then treated by PBS, too. Group B mice were immunized by ovalbumin and then treated by PBS only. Group C mice were immunized by ovalbumin and then treated by arsenic trioxide in a dosage of 2.5 mg per kg for mice. Group D mice were challenged by ovalbumin as group B and C and then treated by arsenic trioxide in a dosage of 5 mg/kg.
# The white blood cells in BALF were counted and differentiated. Every kind of white cell was increased in immunized groups when in comparison with the non-immunized group.
# [2] = test system: FCC1/NH strain of P. falciparum; experiment: Malaria inhibition test; format: cell-based; settings: for pIC50: read-out: IC50
# Method: FCC1/NH strain (from Hainan, P.R.C.) of P. falciparum was used. The strain of the parasite was cultured by culture media mainly composed of RPMI-1640(GBCO), HEPES (GBCO), NaHCO3, and AB type serum. In a given experiment, Petri dish cultures were diluted with culture medium containing an amount of noninfected type B human erythrocytes to obtain a culture with a final parasitemia of about 1%. The resulting culture was ready for addition to microtitration plates with 96 flat-bottom wells.
# The final volume added to each of the 96-well microtitration plates was 200 μl, consisted of 20 μl of complete medium with or without the drug (arsenic trioxide) and 180 μl of the parasitized culture. The microtitration plates were incubated in 5% CO2 for an additional 48 hr, at 37 C. The suspensions were discarded and infection rate of RBC in each well was calculated by microscope examination after Giemsa staining. When drugs interfere, an inhibitory dose of 50% (IC50) and 90% (IC90) can be calculated. A series of experiments is shown below.
# The malaria inhibition experiment was performed in 4 lanes for each arsenic trioxide dose, and the initial infectious rate is 1.8%. After 48 hours of incubation, 5000 RBCs in each well were checked by microscope.
# Another malaria inhibition experiment was performed in 4 lanes for each arsenic trioxide dose, and the initial infectious rate is 1.5%. After 48 hours of incubation, 5000 RBCs in each well were checked by microscope.
# The other malaria inhibition experiment was performed in 12 lanes for each arsenic trioxide dose, and the initial infectious rate is 1.1%. After 48 hours of incubation, 5000 RBCs in each well were checked by microscope.
# The other malaria inhibition experiment was performed in 6 lanes for each arsenic trioxide dose, and the initial infectious rate is 1.1%. After 48 hours of incubation, 5000 RBCs in each well were checked by microscope.
# [3] = 0.031 uM, exp. 5.2.2, initial infectious rate 1.5%, 4 lanes, 48 hours
# [4] = 0.063 uM, exp. 5.2.2, initial infectious rate 1.5%, 4 lanes, 48 hours
# [5] = 0.125 uM, exp. 5.2.2, initial infectious rate 1.5%, 4 lanes, 48 hours
# [6] = 0.25 uM, exp. 5.2.1, initial infectious rate 1.8%, 4 lanes, 48 hours
# [7] = 0.25 uM, exp. 5.2.2, initial infectious rate 1.5%, 4 lanes, 48 hours
# [8] = 0.5 uM, exp. 5.2.1, initial infectious rate 1.8%, 4 lanes, 48 hours
# [9] = 0.5 uM, exp. 5.2.2, initial infectious rate 1.5%, 4 lanes, 48 hours
# [10] = 0.5 uM, exp. 5.2.3, initial infectious rate 1.1%, 12 lanes, 48 hours
# [11] = 0.5 uM, exp. 5.2.4, initial infectious rate 1.1%, 6 lanes, 48 hours
# [12] = 1.0 uM, exp. 5.2.1, initial infectious rate 1.8%, 4 lanes, 48 hours
# [13] = 1.0 uM, exp. 5.2.2, initial infectious rate 1.5%, 4 lanes, 48 hours
# [14] = 1.0 uM, exp. 5.2.3, initial infectious rate 1.1%, 12 lanes, 48 hours
# [15] = 1.0 uM, exp. 5.2.4, initial infectious rate 1.1%, 6 lanes, 48 hours
# [16] = 2.0 uM, exp. 5.2.1, initial infectious rate 1.8%, 4 lanes, 48 hours
# [17] = 2.0 uM, exp. 5.2.2, initial infectious rate 1.5%, 4 lanes, 48 hours
# [18] = 2.0 uM, exp. 5.2.3, initial infectious rate 1.1%, 12 lanes, 48 hours
# [19] = 2.0 uM, exp. 5.2.4, initial infectious rate 1.1%, 6 lanes, 48 hours
# [20] = 4.0 uM, exp. 5.2.1, initial infectious rate 1.8%, 4 lanes, 48 hours
# [21] = 4.0 uM, exp. 5.2.2, initial infectious rate 1.5%, 4 lanes, 48 hours
# [22] = 4.0 uM, exp. 5.2.3, initial infectious rate 1.1%, 12 lanes, 48 hours
# [23] = 4.0 uM, exp. 5.2.4, initial infectious rate 1.1%, 6 lanes, 48 hours
# [24] = 8.0 uM, exp. 5.2.1, initial infectious rate 1.8%, 4 lanes, 48 hours
# [25] = 8.0 uM, exp. 5.2.2, initial infectious rate 1.5%, 4 lanes, 48 hours
# [26] = 8.0 uM, exp. 5.2.3, initial infectious rate 1.1%, 12 lanes, 48 hours
# [27] = 8.0 uM, exp. 5.2.4, initial infectious rate 1.1%, 6 lanes, 48 hours
substance,measurement,setting,value
arsenic trioxide,Lymphocyte concentration in BALF,"[1]; Group C: OVA, ATO 2.5 mg/kg",37.0 ×1000 cells/ml
same,Neutrophil concentration in BALF,"[1]; Group C: OVA, ATO 2.5 mg/kg",200.7 ×1000 cells/ml
same,Eosinophil concentration in BALF,"[1]; Group C: OVA, ATO 2.5 mg/kg",28.6 ± 13.0 ×1000 cells/ml
same,Macrophage concentration in BALF,"[1]; Group C: OVA, ATO 2.5 mg/kg",621.0 ± 199.6 ×1000 cells/ml
same,Lymphocyte concentration in BALF,"[1]; Group D: OVA, ATO 5 mg/kg",28.7 ×1000 cells/ml
same,Neutrophil concentration in BALF,"[1]; Group D: OVA, ATO 5 mg/kg",244.0 ×1000 cells/ml
same,Eosinophil concentration in BALF,"[1]; Group D: OVA, ATO 5 mg/kg",33.2 ± 12.5 ×1000 cells/ml
same,Macrophage concentration in BALF,"[1]; Group D: OVA, ATO 5 mg/kg",499.1 ± 131.6 ×1000 cells/ml
same,effect on eosinophil number in BALF,[1]; group C and D vs group B,diminish significantly the eosinophil number
same,Probability unit (Y),"[2]; 0.031 uM, exp. 5.2.2",4.1619
same,Infection rate (%),[2]; [3],79.9%
same,Inhibition rate (%),[2]; [3],20.1%
same,Probability unit (Y),"[2]; 0.063 uM, exp. 5.2.2",4.3659
same,Infection rate (%),[2]; [4],73.7%
same,Inhibition rate (%),[2]; [4],26.3%
same,Probability unit (Y),"[2]; 0.125 uM, exp. 5.2.2",4.5239
same,Infection rate (%),[2]; [5],68.3%
same,Inhibition rate (%),[2]; [5],31.7%
same,Probability unit (Y),"[2]; 0.25 uM, exp. 5.2.1",5.1942
same,Infection rate (%),[2]; [6],42.3%
same,Inhibition rate (%),[2]; [6],57.7%
same,Probability unit (Y),"[2]; 0.25 uM, exp. 5.2.2",4.8743
same,Infection rate (%),[2]; [7],54.9%
same,Inhibition rate (%),[2]; [7],45.1%
same,Probability unit (Y),"[2]; 0.5 uM, exp. 5.2.1",5.6903
same,Infection rate (%),[2]; [8],24.5%
same,Inhibition rate (%),[2]; [8],75.5%
same,Probability unit (Y),"[2]; 0.5 uM, exp. 5.2.2",5.1408
same,Infection rate (%),[2]; [9],44.4%
same,Inhibition rate (%),[2]; [9],55.6%
same,Probability unit (Y),"[2]; 0.5 uM, exp. 5.2.3",5.6008
same,Infection rate (%),[2]; [10],27.4%
same,Inhibition rate (%),[2]; [10],72.6%
same,Probability unit (Y),"[2]; 0.5 uM, exp. 5.2.4",5.6903
same,Infection rate (%),[2]; [11],24.5%
same,Inhibition rate (%),[2]; [11],75.5%
same,Probability unit (Y),"[2]; 1.0 uM, exp. 5.2.1",5.8596
same,Infection rate (%),[2]; [12],19.5%
same,Inhibition rate (%),[2]; [12],80.5%
same,Probability unit (Y),"[2]; 1.0 uM, exp. 5.2.2",5.9192
same,Infection rate (%),[2]; [13],17.9%
same,Inhibition rate (%),[2]; [13],82.1%
same,Probability unit (Y),"[2]; 1.0 uM, exp. 5.2.3",5.1311
same,Infection rate (%),[2]; [14],12.9%
same,Inhibition rate (%),[2]; [14],87.1%
same,Probability unit (Y),"[2]; 1.0 uM, exp. 5.2.4",6.0027
same,Infection rate (%),[2]; [15],15.7%
same,Inhibition rate (%),[2]; [15],84.3%
same,Probability unit (Y),"[2]; 2.0 uM, exp. 5.2.1",6.0939
same,Infection rate (%),[2]; [16],13.7%
same,Inhibition rate (%),[2]; [16],86.3%
same,Probability unit (Y),"[2]; 2.0 uM, exp. 5.2.2",6.1311
same,Infection rate (%),[2]; [17],12.9%
same,Inhibition rate (%),[2]; [17],87.1%
same,Probability unit (Y),"[2]; 2.0 uM, exp. 5.2.3",6.3722
same,Infection rate (%),[2]; [18],8.5%
same,Inhibition rate (%),[2]; [18],91.5%
same,Probability unit (Y),"[2]; 2.0 uM, exp. 5.2.4",6.3408
same,Infection rate (%),[2]; [19],9.0%
same,Inhibition rate (%),[2]; [19],91.0%
same,Probability unit (Y),"[2]; 4.0 uM, exp. 5.2.1",6.3225
same,Infection rate (%),[2]; [20],9.3%
same,Inhibition rate (%),[2]; [20],90.7%
same,Probability unit (Y),"[2]; 4.0 uM, exp. 5.2.2",6.2160
same,Infection rate (%),[2]; [21],11.2%
same,Inhibition rate (%),[2]; [21],88.8%
same,Probability unit (Y),"[2]; 4.0 uM, exp. 5.2.3",6.7866
same,Infection rate (%),[2]; [22],3.6%
same,Inhibition rate (%),[2]; [22],96.3%
same,Probability unit (Y),"[2]; 4.0 uM, exp. 5.2.4",6.7507
same,Infection rate (%),[2]; [23],4.0%
same,Inhibition rate (%),[2]; [23],96.0%
same,Probability unit (Y),"[2]; 8.0 uM, exp. 5.2.1",6.4909
same,Infection rate (%),[2]; [24],6.8%
same,Inhibition rate (%),[2]; [24],93.2%
same,Probability unit (Y),"[2]; 8.0 uM, exp. 5.2.2",6.6352
same,Infection rate (%),[2]; [25],5.1%
same,Inhibition rate (%),[2]; [25],94.9%
same,Probability unit (Y),"[2]; 8.0 uM, exp. 5.2.3",7.0537
same,Infection rate (%),[2]; [26],2.0%
same,Inhibition rate (%),[2]; [26],98.0%
same,Probability unit (Y),"[2]; 8.0 uM, exp. 5.2.4",7.0749
same,Infection rate (%),[2]; [27],1.9%
same,Inhibition rate (%),[2]; [27],98.1%
same,pIC50,"[2]; exp. 5.2.1, initial infectious rate 1.8%, 48 hours",7.00
same,IC90,"[2]; exp. 5.2.1, initial infectious rate 1.8%, 48 hours, read-out: IC90",3680 nM
same,IC50,"[2]; exp. 5.2.1, 95% confidence limit 11.43˜34.2 ng/ml",0.01978 µg/mL
same,IC90,"[2]; exp. 5.2.1, 95% confidence limit 420.84˜1259.53 ng/ml",0.72805 µg/mL
same,pIC50,"[2]; exp. 5.2.2, initial infectious rate 1.5%, 48 hours",6.60
same,IC90,"[2]; exp. 5.2.2, initial infectious rate 1.5%, 48 hours, read-out: IC90",3730 nM
same,IC50,"[2]; exp. 5.2.2, 95% confidence limit 28.00˜86.73 ng/ml",0.04928 µg/mL
same,IC90,"[2]; exp. 5.2.2, 95% confidence limit 419.28˜1298.77 ng/ml",0.73794 µg/mL
same,pIC50,"[2]; exp. 5.2.3, initial infectious rate 1.1%, 12 lanes, 48 hours",6.89
same,IC90,"[2]; exp. 5.2.3, initial infectious rate 1.1%, 12 lanes, 48 hours, read-out: IC90",960 nM
same,IC50,"[2]; exp. 5.2.3, 95% confidence limit 18.91˜34.9 ng/ml",0.02572 µg/mL
same,IC90,"[2]; exp. 5.2.3, 95% confidence limit 139.65˜258.3 ng/ml",0.18993 µg/mL
same,IC90,"[2]; exp. 5.2.4, initial infectious rate 1.1%, 6 lanes, 48 hours, read-out: IC90",2090 nM
same,IC50,"[2]; exp. 5.2.4, 95% confidence limit 40.32˜99.4 ng/ml",0.06331 µg/mL
same,IC90,"[2]; exp. 5.2.4, 95% confidence limit printed 263.06˜258.30 ng/ml",0.41348 µg/mL
